Measured values published in PubChem BioAssay (NCI).
Several values for one entry are separate records, joined by “and”; a condition that tells them apart may be missing. Equal values may be shown once.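 Exposure lasted 48 hours, with cells grown in 96-well plates and compounds tested at five concentrations. GI50 marks 50% less growth. TGI is the concentration that stops growth completely.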

Legend:
Experiment in all cases: NCI tumour cell line growth inhibition, 48 h
[1] = tested on: SNB-19 CNS
[2] = tested on: HOP-92 NSCLC
[3] = tested on: SF-539 CNS
[4] = tested on: CAKI-1 renal
[5] = tested on: EKVX NSCLC
[6] = tested on: NCI/ADR-RES ovarian
[7] = tested on: MOLT-4 leukemia
[8] = tested on: T-47D breast
[9] = tested on: MALME-3M melanoma
[10] = tested on: 786-0 renal

Structure (SMILES)	GI50 [1]	TGI [1]	GI50 [2]	TGI [2]	GI50 [3]	TGI [3]	GI50 [4]	TGI [4]	GI50 [5]	TGI [5]	GI50 [6]	TGI [6]	GI50 [7]	TGI [7]	GI50 [8]	TGI [8]	GI50 [9]	TGI [9]	GI50 [10]	TGI [10]
O=Nc1c(O)c2ccccc2c2ccccc12	1.13 µM	2.55 µM	2.32 µM	4.57 µM	0.379 µM	1.6 µM	2.95 µM	9 µM	1.7 µM	3.32 µM	0.387 µM	2.95 µM	2.13 µM	> 100 µM	1.32 µM	3.57 µM	1.47 µM	3.03 µM	2.84 µM	7.04 µM
NC(CO)C(=O)NCC(=O)O (stereo not drawn)	–	> 100 µM	–	> 100 µM	–	> 100 µM	–	> 100 µM	–	> 100 µM	–	> 100 µM	–	> 100 µM	–	> 100 µM	–	> 100 µM	–	> 100 µM
NCCN1C(=O)c2ccccc2C1(O)c1ccc(Cl)cc1 (stereo not drawn)	–	61 µM	–	34.4 µM	–	43.2 µM	–	> 100 µM	–	52.3 µM	–	> 100 µM	–	38.8 µM	–	37.8 µM	–	27.2 µM	–	30.9 µM
Oc1ccccc1C=Nc1ccccc1N=Cc1ccccc1O.[Cu+2]	13 µM	26.3 µM	1.03 µM	8.9 µM	11.8 µM	27.7 µM	2.74 µM	12.4 µM	8.62 µM	23.6 µM	2.25 µM	8.38 µM	3.84 µM	> 100 µM	1.68 µM	5.4 µM	6.52 µM	21.2 µM	10.8 µM	24.7 µM
CC1(C)CC(=O)c2c(ccc(C(=O)C[C@@H](N)CO)c2N)O1	0.749 µM	> 100 µM	6.28 µM	> 69.3 µM	0.399 µM	5.22 µM	0.564 µM	23.7 µM	19 µM	> 100 µM	2.55 µM	> 100 µM	0.349 µM	> 37.4 µM	4.56 µM	> 67.6 µM	12.5 µM	> 76.9 µM	11.9 µM	> 61.4 µM
CC(=O)/C(=C\c1c(-c2ccccc2)[nH]c2ccccc12)S(=O)(=O)c1ccccc1	4.14 µM	12.1 µM	3.66 µM	15.4 µM	1.31 µM	3.08 µM	2.43 µM	10.6 µM	3.22 µM	> 100 µM	0.513 µM	5.62 µM	1.35 µM	6.39 µM	1.26 µM	7.03 µM	1.98 µM	9.19 µM	1.62 µM	3.44 µM
C#CC(=O)OCC#CCOC(=O)C#C	–	> 100 µM	–	34.8 µM	–	28.8 µM	–	39.1 µM	–	29.9 µM	–	76.5 µM	–	–	–	60.2 µM	–	38 µM	–	31.4 µM
C#C/C=C/CC1OC(C(Br)CC)CC(Br)C2CC1O2 (stereo not drawn)	–	> 100 µM	–	58.6 µM	–	> 100 µM	–	> 100 µM	–	> 100 µM	–	> 100 µM	–	> 100 µM	–	> 100 µM	–	25.7 µM	–	24.8 µM
C[n+]1c(/C=C/c2ccc(/C=N/NC(=O)c3ccc(C(=O)N/N=C/c4ccc(/C=C/c5cn6ccccc6[n+]5C)cc4)cc3)cc2)cn2ccccc21	–	> 100 µM	–	> 100 µM	–	> 100 µM	–	> 100 µM	–	> 100 µM	–	> 100 µM	–	92.4 µM	–	> 100 µM	–	> 100 µM	–	> 100 µM
Oc1c(CNCCNCc2cc(Cl)cc(Cc3ccccc3)c2O)cc(Cl)cc1Cc1ccccc1	0.701 µM	> 100 µM	2.68 µM	23.9 µM	0.314 µM	3.93 µM	0.338 µM	18.7 µM	0.193 µM	> 100 µM	0.364 µM	18.3 µM	0.342 µM	> 100 µM	0.391 µM	37.9 µM	0.6 µM	7.6 µM	0.375 µM	10.4 µM
O=C(c1ccccc1O)c1[nH]c(Cl)c(Cl)c1-n1c(C(=O)c2ccccc2O)cc(Cl)c1Cl	1.49 µM and 0.917 µM	15.4 µM and 15.6 µM	0.224 µM and 0.155 µM	0.94 µM and 0.587 µM	1.67 µM and 1.74 µM	10.1 µM and 10.9 µM	0.425 µM and 0.385 µM	10.6 µM and 3.1 µM	0.549 µM	10 µM	0.669 µM and 0.456 µM	12.9 µM and 11.2 µM	1.7 µM and 0.798 µM	14.4 µM and 5.74 µM	0.36 µM and 0.46 µM	3.34 µM and 11.2 µM	1.37 µM	5.18 µM	2.11 µM and 1.73 µM	11.2 µM and 7.99 µM
CC1(C)N=C(N)N=C(N)N1c1ccc(Cl)c(Cl)c1	1 µM	> 100 µM	47.1 µM	> 100 µM	0.201 µM	> 54 µM	12.5 µM	> 100 µM	1.97 µM	> 100 µM	43 µM	> 100 µM	1.38 µM	> 100 µM	> 45.8 µM	> 100 µM	32 µM	> 100 µM	0.072 µM	> 100 µM
COc1cc(C2C3=C(COC3=O)Nc3cc4c(cc32)OCO4)cc2c1OCO2 (stereo not drawn)	0.143 µM	> 100 µM	3.24 µM	> 93.3 µM	0.0394 µM	> 64.5 µM	0.156 µM	> 100 µM	–	> 100 µM	0.0785 µM	0.606 µM	0.123 µM	> 100 µM	> 100 µM	> 100 µM	> 100 µM	> 100 µM	0.138 µM	> 100 µM
N=C(N)SCc1ccc([N+](=O)[O-])cc1[N+](=O)[O-]	26 µM	79 µM	2.4 µM	9.91 µM	11 µM	25.7 µM	4.86 µM	15.8 µM	11 µM	25.8 µM	23 µM	89 µM	3.07 µM	20.2 µM	2.59 µM	11.4 µM	3.48 µM	18.7 µM	11.8 µM	27.8 µM
COc1ccc(Oc2cc(NCCC(F)(F)F)c3ncc(-c4ccc(C(=O)NC5CC5)c(C)c4)n3n2)c(F)c1F	5.73 µM	> 72.4 µM	4.54 µM	39.3 µM	0.758 µM	21.9 µM	0.365 µM	> 100 µM	2.53 µM	> 100 µM	0.198 µM	> 80.6 µM	2.03 µM	> 100 µM	1.9 µM	> 92.7 µM	2.08 µM	54.8 µM	1.05 µM	> 52.3 µM
